In article PMC11157491, “Novel Alaninamide Derivatives with Drug-like Potential for Development as Antiseizure and Antinociceptive Therapies—In Vitro and In Vivo Characterization” (ACS Chemical Neuroscience, 2024):

How the values were obtained:
[1] = test system: mice; test: Maximal electroshock (MES) seizure test; format: in vivo; details: for responders at 100 mg/kg / ED50: Mus musculus, ip; for responders at 100 mg/kg / antiseizure protection in MES screening: 100 mg/kg i.p., 0.5 h; for responders at 100 mg/kg: read-out: MES: number of mice protected/number of mice tested (converted); for antiseizure protection in MES screening: four mice; for ED50: mice, pretreatment 0.5 h
From the text: (§1) Identification and profiling of new ASM candidate compounds are still largely based on predictive animal models of seizures/epilepsy, while a range of in silico and in vitro approaches (i.e., molecular modeling or high throughput screening, etc.) are increasingly used in the early stages of ASM discovery.[31] The Epilepsy Therapy Screening Program (ETSP) of the National Institute of Neurological Disorders and Stroke (NIH, Bethesda, MD) has enabled the discovery of several approved ASMs by focusing on the in vivo testing of compounds synthesized by both academic laboratories and industry.[32] The ETSP provides a broad panel of seizure tests (ca. 30 rodent models), but a subset of them is used for the initial screening of new compounds with potential antiseizure activity. The routinely used seizure models include: (i) the MES test, which is an experimental model of tonic–clonic seizures, (ii) the 6 Hz model (32 mA) of focal seizures, and (iii) the scPTZ model of generalized absence or myoclonic seizures.[33],[34] Consequently, in the current studies, all final compounds 21–36 and 45–48 were initially studied in the MES and the 6 Hz (32 mA) seizure models after intraperitoneal (i.p.) administration at a screening dose of 100 mg/kg in mice at a time point of 0.5 h (the screening group consisted of four mice, and the results obtained are summarized in Table S1).
(§2) These parameters were then used to calculate the protective indexes (PIs, PI = TD50/ED50), which describe the therapeutics window of potential drug candidates. The ED50, TD50, and PI values for the tested compounds together with data of their chemical prototypes KA-11 and KJ-5 and reference ASMs are summarized in Table 2.
(§3) The adult male Albino Swiss mice weighed between 22 and 26 g were used in the in vivo studies. They were housed under standardized housing conditions in colony cages and had free access to food as well as tap water. The animals were left to adapt under laboratory conditions for 7 days. All procedures involving animals and their care were performed in accordance with the current European Community and Polish legislation on animal experimentation.
(§4) In the initial screening studies, four mice per group were randomly assigned to each experimental group (each mouse was used only once). To evaluate the ED50 or TD50 values, four groups consisting of eight animals were injected with various doses of tested compounds. The protective indexes (PIs) for the compounds investigated and reference ASMs were calculated by dividing the TD50 value, as determined in the chimney test, by the respective ED50 value, as determined in the MES, scPTZ, or 6 Hz (32 or 44 mA) tests (PI = TD50/ED50). The PIs are a measure of the potential therapeutic window of the tested agent.
(§5) All substances were suspended in Tween 80 (1% aqueous solution) and administered i.p. as a single injection at a dose of 10 mL/kg. On each day of experimentation, fresh solutions were prepared. The detailed in vivo procedures are described elsewhere: the maximal electroshock seizure test (MES),[60] the subcutaneous pentylenetetrazole seizure test (scPTZ),[61] the 6 Hz psychomotor seizure model (32 and 44 mA),[62] and the chimney test.[63] The reference ASMs were purchased from commercial suppliers: VPA (Sigma-Aldrich, St. Louis, MO), LCS, and LEV (UCB Pharma, Braine l’Alleud, Belgium).

[2] = test system: mice; test: 6 Hz (32 mA) psychomotor seizure model; format: in vivo; details: Mus musculus, ip; for responders at 100 mg/kg: 100 mg/kg i.p., 0.5 h; for ED50: mice, pretreatment 0.5 h
From the text: as §1, §2, §3, §4, §5

[3] = biological target: T1, TRPV1 (VR1) (h) (Homo sapiens, UniProt Q8NER1); test: TRPV1 antagonist effect functional assay; format: cell-based; details: human recombinant CHO cells; for inhibition at 10 µM: read-out: % inhibition of control agonist response
T1 construct: Eurofins (contract assay)
T1 sequence (Q8NER1 whole entry): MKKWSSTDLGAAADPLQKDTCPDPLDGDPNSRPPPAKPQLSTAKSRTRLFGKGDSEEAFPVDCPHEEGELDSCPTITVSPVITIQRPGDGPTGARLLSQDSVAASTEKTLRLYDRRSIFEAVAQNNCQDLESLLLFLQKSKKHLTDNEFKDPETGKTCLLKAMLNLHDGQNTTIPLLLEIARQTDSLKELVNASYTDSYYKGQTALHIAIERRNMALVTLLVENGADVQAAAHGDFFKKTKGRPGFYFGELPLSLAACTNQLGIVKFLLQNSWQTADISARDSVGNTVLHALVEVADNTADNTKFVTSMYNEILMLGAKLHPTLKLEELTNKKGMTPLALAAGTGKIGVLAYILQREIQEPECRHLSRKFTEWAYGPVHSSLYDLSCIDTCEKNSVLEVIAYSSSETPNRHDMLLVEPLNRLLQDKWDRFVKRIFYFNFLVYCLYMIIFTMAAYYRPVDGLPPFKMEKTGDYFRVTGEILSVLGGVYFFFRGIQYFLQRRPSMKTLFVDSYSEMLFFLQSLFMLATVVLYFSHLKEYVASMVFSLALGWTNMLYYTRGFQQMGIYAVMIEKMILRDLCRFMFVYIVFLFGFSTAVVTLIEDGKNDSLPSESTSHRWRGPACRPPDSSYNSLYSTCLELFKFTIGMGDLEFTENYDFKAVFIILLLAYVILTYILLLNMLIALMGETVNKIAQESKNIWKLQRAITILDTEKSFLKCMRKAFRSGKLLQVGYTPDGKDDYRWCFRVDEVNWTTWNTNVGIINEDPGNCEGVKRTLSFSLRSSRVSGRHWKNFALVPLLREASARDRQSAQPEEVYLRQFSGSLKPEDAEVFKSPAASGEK
Experimental: For many years, the TRPV1 channel, permeable to calcium and sodium ions, has been recognized as a promising molecular target for novel analgesics.[19] […] Therefore, bearing in mind the involvement of TRPV1 in pain sensation and potentially in seizure induction, in the next step of the in vitro studies, the TRPV1 antagonist activity was determined for all compounds obtained (Table 6).
Binding/functional studies were carried out commercially in Eurofins Laboratories (Poitiers, France) and Eurofins Panlabs Discovery Services Taiwan, Ltd. (New Taipei City, Taiwan) using testing procedures that were reported previously (for details, see Table S2).
Table S2. Radioligand binding and functional assays. […]
TRPV1 (VR1) (h) (antagonist effect) […]
Assays were performed commercially in Eurofins Laboratories ( Poitiers, France) or Eurofins Panlabs Discovery Services
Taiwan, Ltd. (New Taipei City, Taiwan).

[4] = test system: mice; test: Subcutaneous pentylenetetrazole (scPTZ) seizure test; format: in vivo; details: for protection in scPTZ screening / scPTZ: number of mice protected/number of mice tested: 100 mg/kg i.p.; for scPTZ: number of mice protected/number of mice tested: 0.5 h
From the text: as §2, §4, §5

[5] = four mice, read-out: protection in 6 Hz (32 mA) screening
[6] = read-out: 6 Hz (32 mA): number of mice protected/number of mice tested (converted)

CC(=O)NC(C)C(=O)N1CCN(c2ccccc2)CC1 (stereo not drawn) [Compound 21, N-(1-oxo-1-(4-Phenylpiperazin-1-yl)propan-2-yl)acetamide]
responders at 100 mg/kg [1]: 0%
responders at 100 mg/kg [2, 5]: 25%
responders at 100 mg/kg [2, 6]: 25%
inhibition at 10 µM [3]: 1.6%
melting point: 113.6 to 114.9 °C

CC(=O)NC(C)C(=O)N1CCN(c2cccc(Cl)c2)CC1 (stereo not drawn) [Compound 22, N-(1-(4-(3-Chlorophenyl)piperazin-1-yl)-1-oxopropan-2-yl)acetamide]
antiseizure protection in MES screening [1]: 100%
responders at 100 mg/kg [1]: 100%
ED50 [1]: 122 mg/kg
protection in scPTZ screening [4]: 25%
scPTZ: number of mice protected/number of mice tested [4]: 1/4
responders at 100 mg/kg [2, 5]: 75%
responders at 100 mg/kg [2, 6]: 75%
ED50 [2]: 77.3 mg/kg
inhibition at 10 µM [3]: 12.5%
melting point: 125.8 to 126.5 °C

CC(=O)NC(C)C(=O)N1CCN(c2ccc(Cl)cc2)CC1 (stereo not drawn) [Compound 23, N-(1-(4-(4-Chlorophenyl)piperazin-1-yl)-1-oxopropan-2-yl)acetamide]
responders at 100 mg/kg [1]: 0%
responders at 100 mg/kg [2, 6]: 0%
inhibition at 10 µM [3]: -4.6%
melting point: 144.9 to 145.8 °C

CC(=O)NC(C)C(=O)N1CCN(c2ccc(Cl)c(Cl)c2)CC1 (stereo not drawn) [Compound 24, N-(1-(4-(3,4-Dichlorophenyl)piperazin-1-yl)-1-oxopropan-2-yl)acetamide]
antiseizure protection in MES screening [1]: 75%
responders at 100 mg/kg [1]: 75%
ED50 [1]: > 150 mg/kg
protection in scPTZ screening [4]: 75%
scPTZ: number of mice protected/number of mice tested [4]: 3/4
ED50 ([4]; Mus musculus, ip, mice): 116 mg/kg
responders at 100 mg/kg [2, 5]: 100%
responders at 100 mg/kg [2, 6]: 100%
ED50 [2]: 41.4 mg/kg
inhibition at 10 µM [3]: 51.5%
Kb [3]: 4.5 µM
melting point: 152.1 to 152.9 °C

CC(=O)NC(C)C(=O)N1CCN(c2ccc(C(F)(F)F)cc2)CC1 (stereo not drawn) [Compound 27, N-(1-oxo-1-(4-(4-(Trifluoromethyl)phenyl)piperazin-1-yl)propan-2-yl)acetamide]
antiseizure protection in MES screening [1]: 25%
responders at 100 mg/kg [1]: 25%
responders at 100 mg/kg [2, 6]: 0%
inhibition at 10 µM [3]: -15.9%
melting point: 132.8 to 133.3 °C

CC(NC(=O)c1ccccc1)C(=O)N1CCN(c2cccc(Cl)c2)CC1 (stereo not drawn) [Compound 31, N-(1-(4-(3-Chlorophenyl)piperazin-1-yl)-1-oxopropan-2-yl)benzamide]
responders at 100 mg/kg [1]: 0%
responders at 100 mg/kg [2, 6]: 0%
inhibition at 10 µM [3]: 4.6%
melting point: 177.8 to 178.5 °C

CC(NC(=O)c1ccccc1)C(=O)N1CCN(c2cccc(C(F)(F)F)c2)CC1 (stereo not drawn) [Compound 32, N-(1-oxo-1-(4-(3-(Trifluoromethyl)phenyl)piperazin-1-yl)propan-2-yl)benzamide]
responders at 100 mg/kg [1]: 0%
responders at 100 mg/kg [2, 5]: 25%
responders at 100 mg/kg [2, 6]: 25%
inhibition at 10 µM [3]: -16.1%
melting point: 165.8 to 166.5 °C

CCNC(=O)NC(C)C(=O)N1CCN(c2cccc(Cl)c2)CC1 (stereo not drawn) [Compound 33, 1-(1-(4-(3-Chlorophenyl)piperazin-1-yl)-1-oxopropan-2-yl)-3-ethylurea]
responders at 100 mg/kg [1]: 0%
responders at 100 mg/kg [2, 6]: 50%
inhibition at 10 µM [3]: -11.7%
melting point: 145.1 to 146.2 °C

CCNC(=O)NC(C)C(=O)N1CCN(c2cccc(C(F)(F)F)c2)CC1 (stereo not drawn) [Compound 34, 1-Ethyl-3-(1-oxo-1-(4-(3-(trifluoromethyl)phenyl)piperazin-1-yl)propan-2-yl)urea]
responders at 100 mg/kg [1]: 0%
responders at 100 mg/kg [2, 6]: 50%
inhibition at 10 µM [3]: -5.3%
melting point: 136.4 to 137.3 °C

CC(C)NC(=O)NC(C)C(=O)N1CCN(c2cccc(Cl)c2)CC1 (stereo not drawn) [Compound 35, 1-(1-(4-(3-Chlorophenyl)piperazin-1-yl)-1-oxopropan-2-yl)-3-isopropylurea]
responders at 100 mg/kg [1]: 0%
responders at 100 mg/kg [2, 6]: 50%
inhibition at 10 µM [3]: -11.9%
melting point: 147.4 to 148.2 °C

CC(C)NC(=O)NC(C)C(=O)N1CCN(c2cccc(C(F)(F)F)c2)CC1 (stereo not drawn) [Compound 36, 1-Isopropyl-3-(1-oxo-1-(4-(3-(trifluoromethyl)phenyl)piperazin-1-yl)propan-2-yl)urea]
antiseizure protection in MES screening [1]: 25%
responders at 100 mg/kg [1]: 25%
responders at 100 mg/kg [2, 5]: 25%
responders at 100 mg/kg [2, 6]: 25%
inhibition at 10 µM [3]: -13.6%
melting point: 144.5 to 145.4 °C

CC(=O)NC(C)C(=O)NC1CCN(c2ccccc2)C1 (stereo not drawn) [Compound 45, 2-Acetamido-N-(1-phenylpyrrolidin-3-yl)propanamide]
responders at 100 mg/kg [1]: 0%
responders at 100 mg/kg [2, 6]: 0%
inhibition at 10 µM [3]: -11.6%
melting point: 176.6 to 177.8 °C

CC(=O)NC(C)C(=O)NC1CCN(c2cccc(C(F)(F)F)c2)C1 (stereo not drawn) [Compound 46, 2-Acetamido-N-(1-(3-(trifluoromethyl)phenyl)pyrrolidin-3-yl)propanamide]
responders at 100 mg/kg [1]: 0%
responders at 100 mg/kg [2, 6]: 0%
inhibition at 10 µM [3]: -10%
melting point: 162.8 to 163.7 °C

CC(=O)NC(C)C(=O)NC1CCN(c2cccc(OC(F)(F)F)c2)C1 (stereo not drawn) [Compound 47, 2-Acetamido-N-(1-(3-(trifluoromethoxy)phenyl)pyrrolidin-3-yl)propanamide]
responders at 100 mg/kg [1]: 0%
responders at 100 mg/kg [2, 5]: 50%
responders at 100 mg/kg [2, 6]: 50%
inhibition at 10 µM [3]: -8.3%
melting point: 164.8 to 165.9 °C

CC(=O)NC(C)C(=O)NC1CCN(c2cccc(SC(F)(F)F)c2)C1 (stereo not drawn) [Compound 48, 2-Acetamido-N-(1-(3-((trifluoromethyl)thio)phenyl)pyrrolidin-3-yl)propanamide]
responders at 100 mg/kg [1]: 0%
responders at 100 mg/kg [2, 5]: 50%
responders at 100 mg/kg [2, 6]: 50%
inhibition at 10 µM [3]: 4.2%
melting point: 162.2 to 163.3 °C
